Type in all cases: cell-based
One assay deals with hGLP-1R (Homo sapiens, UniProt P43220). The assay can be described thus: Functional cAMP formation (HTRF) in HEK-293 clonal cells expressing hGLP-1R, 0.1% bovine casein, without or with 1.0% human serum albumin. Further details: expressed in transfected cells. To be noted: for Emax: percent of maximal response to GLP-1(7-36)NH2; for EC50: cAMP, 0.1% bovine casein (no human serum albumin), geometric mean. The essentials:
(§1)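 Cells were stimulated with peptide for 30 min at 37° C, then lysed in buffer carrying cAMP-d2 and anti-cAMP Eu3+-cryptate for a competitive HTRF read after at least 60 min at room temperature. The 665/620 nm ratio was converted to nM cAMP against a standard curve.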

Another assay concerns the target T1, hGCGR (Homo sapiens, UniProt P47871).
T1 construct: expressed in transfected cells
Description: Functional cAMP formation (HTRF) in HEK-293 clonal cells expressing hGCGR, 0.1% bovine casein, without or with 1.0% human serum albumin. To be noted: cAMP, 37° C. A digest of the protocol:
as §1
A general note: Changes in cAMP serve as a functional read-out for many G protein-coupled receptors.

Another assay concerns the target T2, hGIPR (Homo sapiens, UniProt P48546).
T2 construct: expressed in transfected cells
T2 sequence (P48546 22-466): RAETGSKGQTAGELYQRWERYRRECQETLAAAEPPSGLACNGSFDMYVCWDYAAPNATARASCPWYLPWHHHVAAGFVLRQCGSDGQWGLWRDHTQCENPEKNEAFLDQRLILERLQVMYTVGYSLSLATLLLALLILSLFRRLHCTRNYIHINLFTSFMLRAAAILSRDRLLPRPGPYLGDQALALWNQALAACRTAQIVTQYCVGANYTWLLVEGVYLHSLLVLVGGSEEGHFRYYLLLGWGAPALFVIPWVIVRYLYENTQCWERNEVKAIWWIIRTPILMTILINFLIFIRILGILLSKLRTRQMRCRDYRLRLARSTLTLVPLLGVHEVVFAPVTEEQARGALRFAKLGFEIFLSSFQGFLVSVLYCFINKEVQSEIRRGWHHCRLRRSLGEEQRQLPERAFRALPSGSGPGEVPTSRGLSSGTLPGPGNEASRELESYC
Description: Functional cAMP formation (HTRF) in HEK-293 clonal cells expressing hGIPR, 0.1% bovine casein, without or with 1.0% human serum albumin. To be noted: for Emax: percent of maximal response to GIP(1-42)NH2; for EC50: cAMP, 0.1% bovine casein (no human serum albumin), geometric mean. A digest of the protocol: as §1

As usually defined, the Emax is the size of the effect at its maximum, as opposed to the concentration needed. In general, EC50 refers to the concentration giving half of the maximal effect.

Where two headings read alike, the source gives them in different places.

hGLP-1R, sequence (P43220 24-463): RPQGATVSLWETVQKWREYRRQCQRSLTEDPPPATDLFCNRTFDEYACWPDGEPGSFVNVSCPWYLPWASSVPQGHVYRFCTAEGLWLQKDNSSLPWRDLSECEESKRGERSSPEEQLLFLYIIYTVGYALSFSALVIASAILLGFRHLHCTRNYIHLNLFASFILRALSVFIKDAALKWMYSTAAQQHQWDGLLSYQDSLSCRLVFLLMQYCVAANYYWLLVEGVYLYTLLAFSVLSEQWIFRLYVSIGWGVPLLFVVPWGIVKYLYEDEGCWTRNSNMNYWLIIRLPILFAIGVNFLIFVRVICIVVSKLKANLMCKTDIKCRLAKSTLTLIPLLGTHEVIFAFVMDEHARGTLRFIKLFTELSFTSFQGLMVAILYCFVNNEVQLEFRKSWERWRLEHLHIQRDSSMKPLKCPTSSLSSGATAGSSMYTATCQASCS
T1 sequence (P47871 26-477): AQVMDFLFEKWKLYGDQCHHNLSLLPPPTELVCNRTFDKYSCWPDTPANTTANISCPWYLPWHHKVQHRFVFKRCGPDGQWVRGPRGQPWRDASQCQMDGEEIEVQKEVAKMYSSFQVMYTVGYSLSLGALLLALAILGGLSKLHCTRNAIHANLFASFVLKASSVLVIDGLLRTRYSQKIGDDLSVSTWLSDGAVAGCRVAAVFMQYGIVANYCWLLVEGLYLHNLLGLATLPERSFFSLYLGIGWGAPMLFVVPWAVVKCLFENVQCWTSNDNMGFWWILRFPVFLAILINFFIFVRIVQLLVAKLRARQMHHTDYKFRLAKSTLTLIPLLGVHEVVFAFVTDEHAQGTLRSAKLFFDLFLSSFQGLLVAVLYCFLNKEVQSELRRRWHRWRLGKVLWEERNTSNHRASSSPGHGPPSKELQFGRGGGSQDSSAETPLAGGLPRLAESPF

`CC[C@H](C)[C@H](NC(=O)[C@H](CC(C)C)NC(=O)[C@](C)(Cc1ccc(O)cc1)NC(=O)[C@@H](CCC(=O)O)NC(=O)[C@@H](NC(=O)[C@H](Cc1ccccc1)NC(=O)[C@H](CCCN)NC(=O)C(C)(C)NC(=O)[C@H](CCC(N)=O)NC(=O)[C@H](C)NC(=O)[C@H](CCCCNC(=O)COCCOCCNC(=O)COCCOCCNC(=O)CC[C@H](NC(=O)CCCCCCCCCCCCC(=O)O)C(=O)O)NC(=O)[C@H](CCCN)NC(=O)[C@H](CC(=O)O)NC(=O)[C@H](CC(C)C)NC(=O)[C@](C)(CC(C)C)NC(=O)[C@@H](NC(=O)C(C)(C)NC(=O)[C@@H](NC(=O)[C@H](CC(=O)O)NC(=O)[C@H](CO)NC(=O)[C@@H](NC(=O)[C@](C)(Cc1ccccc1F)NC(=O)[C@@H](NC(=O)CNC(=O)[C@H](CCC(=O)O)NC(=O)C(C)(C)NC(=O)[C@@H](N)Cc1ccc(O)cc1)[C@@H](C)O)[C@@H](C)O)C(C)C)[C@@H](C)CC)[C@@H](C)CC)C(=O)N[C@@H](CCCCNC(=O)COCCOCCNC(=O)COCCOCCNC(=O)CC[C@H](NC(=O)CCCCCCCCCCCCC(=O)O)C(=O)O)C(=O)NCC(=O)NCC(=O)N1CCC[C@H]1C(=O)N[C@@H](CO)C(=O)N[C@@H](CO)C(=O)NCC(=O)N[C@@H](C)C(=O)N1CCC[C@H]1C(=O)N1CCC[C@H]1C(=O)N1CCC[C@H]1C(=O)N[C@@H](CO)C(N)=O` [Example 350]: the Emax at hGLP-1R (HEK293, cAMP, 37° C., 0.1% bovine casein and 1.0% human serum albumin, read-out: hGLP-1R Emax, % ± SEM) was determined as 91.4%; on hGLP-1R (HEK293, cAMP, 37° C., 0.1% bovine casein, arithmetic mean, read-out: hGLP-1R Emax, % ± SEM), 95.9%; on hGIPR (HEK293, cAMP, 37° C., 0.1% bovine casein and 1.0% human serum albumin, read-out: hGIPR Emax, % ± SEM), 73.5%. In addition, the EC50 at hGLP-1R (37° C., read-out: hGLP-1R EC50, nM (SEM, n)) is 0.202 nM; at hGCGR (0.1% bovine casein (no human serum albumin), geometric mean, read-out: hGCGR EC50, nM (SEM, n)) it was greater than 9950 nM; on hGCGR (0.1% bovine casein and 1.0% human serum albumin, geometric mean (SEM, n), read-out: hGCGR EC50, nM (SEM, n)) it was greater than 9950 nM; on hGIPR (37° C., read-out: hGIPR EC50, nM (SEM, n)), 0.0288 nM.

Consider `CC[C@H](C)[C@H](NC(=O)[C@H](CC(C)C)NC(=O)[C@](C)(Cc1ccc(O)cc1)NC(=O)[C@H](CCCCNC(=O)COCCOCCNC(=O)COCCOCCNC(=O)CC[C@H](NC(=O)CCCCCCCCCCOc1ccc(C(=O)O)cc1)C(=O)O)NC(=O)[C@@H](NC(=O)[C@H](Cc1ccccc1)NC(=O)[C@H](CCCN)NC(=O)C(C)(C)NC(=O)[C@H](CCC(N)=O)NC(=O)[C@H](C)NC(=O)[C@H](CCC(N)=O)NC(=O)[C@H](CCCN)NC(=O)[C@H](CC(=O)O)NC(=O)[C@H](CC(C)C)NC(=O)[C@](C)(CC(C)C)NC(=O)[C@@H](NC(=O)C(C)(C)NC(=O)[C@H](Cc1ccncc1)NC(=O)[C@H](CC(=O)O)NC(=O)[C@H](CO)NC(=O)[C@@H](NC(=O)[C@](C)(Cc1ccccc1F)NC(=O)[C@@H](NC(=O)CNC(=O)[C@H](CCC(=O)O)NC(=O)C(C)(C)NC(=O)[C@@H](N)Cc1ccc(O)cc1)[C@@H](C)O)[C@@H](C)O)[C@@H](C)CC)[C@@H](C)CC)C(=O)N[C@@H](CCCCNC(=O)COCCOCCNC(=O)COCCOCCNC(=O)CC[C@H](NC(=O)CCCCCCCCCCOc1ccc(C(=O)O)cc1)C(=O)O)C(=O)NCC(=O)NCC(=O)N1CCC[C@H]1C(=O)N[C@@H](CO)C(=O)N[C@@H](CO)C(=O)NCC(=O)N[C@@H](C)C(=O)N1CCC[C@H]1C(=O)N1CCC[C@H]1C(=O)N1CCC[C@H]1C(=O)N[C@@H](CO)C(N)=O` [Example 442], for which the Emax turned out to be 113% at hGLP-1R (HEK293, read-out: hGLP-1R Emax, % ± SEM, cAMP, 37° C., 0.1% bovine casein, arithmetic mean); 92.1% on hGIPR (HEK293, read-out: hGIPR Emax, % ± SEM, cAMP, 37° C., 0.1% bovine casein and 1.0% human serum albumin). The EC50 is 0.285 nM at hGLP-1R (hGLP-1R EC50, nM (SEM, n), 37° C.); greater than 9950 nM on hGCGR (hGCGR EC50, nM (SEM, n), 0.1% bovine casein (no human serum albumin), geometric mean); greater than 9950 nM at hGCGR (hGCGR EC50, nM (SEM, n), 0.1% bovine casein and 1.0% human serum albumin, geometric mean (SEM, n)); 0.0129 nM at hGIPR (hGIPR EC50, nM (SEM, n), 37° C.).

Values taken from patent publication US20230265151A1, “GIP/GLP1 CO-AGONIST COMPOUNDS” (priority 2020, published 2023).
